The target of assay [1] is T1, PAR4 (Homo sapiens (Human), UniProt Q96RI0). The assay is described as follows: Gamma thrombin induced platelet aggregation assay (PRP assay). The assay is classed as cell-based. To be noted: human platelet rich plasma, 96-well microplate. The procedure:
Platelet aggregation can be monitored in a 96-well microplate aggregation assay format or using standard platelet aggregometer.
The platelet rich plasma was isolated by centrifugation at 170 g for 14 minutes.
The ability of the compounds of the current invention to inhibit platelet aggregation induced by gamma-thrombin was tested in a 96-well microplate aggregation assay format. Briefly, PRP or washed platelet suspension (100 μl) was pre-incubated for 5 minutes at room temperature with varying concentrations of compounds. Aggregation was initiated by ˜10-50 nM gamma thrombin (Haematologic Technologies, Essex Junction, Vt.), which was titrated daily to achieve 80% platelet aggregation. Refludan at 1 U/mL (Berlex, Montville, N.J.) was added to the gamma thrombin sample to prevent PAR1 activation induced by residual alpha-thrombin contamination. The plate was then placed into a 37° C. Molecular Devices (Sunnyvale, Calif.) SPECTRAMAX® Plus Plate Reader. […] The plate also included an untreated control sample which served as ODmax, while buffer containing no platelets was the ODmin. Platelet aggregation was determined by subtracting the ODmax from the ODmin for the 100% aggregation value. In experimental samples, the observed transmission was subtracted from the minimum value and then compared to the 100% aggregation value to determine the percentage aggregation. IC50 values are determined using Excel Fit software.

In assay [2] the target is T1, PAR4. The assay is described as follows: FLIPR assay in PAR4-expressing HEK293 cells (PAR4 antagonist activity, calcium mobilization). The assay is classed as cell-based. The following applies: H-Ala-Phe(4-F)-Pro-Gly-Trp-Leu-Val-Lys-Asn-Gly-NH2-induced calcium mobilization. In a few lines: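 HEK293 EBNA cells stably expressing human PAR4 (also endogenous PAR1) preincubated 30 min at room temperature with compound in HBSS/10 mM HEPES, 0.67% DMSO final. PAR4 agonist peptide then added and intracellular calcium mobilization monitored by fluorescence.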
A general note: Calcium assays in cells follow changes in intracellular calcium, usually with a dye or a luminescent sensor.

T1 sequence (Q96RI0 18-385): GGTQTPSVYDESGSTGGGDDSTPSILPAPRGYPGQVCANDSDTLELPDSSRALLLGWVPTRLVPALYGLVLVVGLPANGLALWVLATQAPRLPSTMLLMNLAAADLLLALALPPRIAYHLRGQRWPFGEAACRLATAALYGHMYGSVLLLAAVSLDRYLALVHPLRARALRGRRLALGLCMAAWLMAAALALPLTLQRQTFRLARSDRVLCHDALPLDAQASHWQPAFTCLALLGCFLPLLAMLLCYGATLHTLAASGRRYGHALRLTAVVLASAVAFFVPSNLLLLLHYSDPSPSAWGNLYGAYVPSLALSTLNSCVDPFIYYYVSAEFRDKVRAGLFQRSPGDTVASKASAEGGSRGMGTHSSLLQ

The IC50 is the concentration at which inhibition is half-maximal. Lower therefore signals inhibition by little substance. What is called EC50 is the concentration giving half of the maximal effect. In the case of `COCCOCc1nc(COc2cc(OC)cc3oc(-c4cn5nc(OC)sc5n4)cc23)cs1` [Example 6, 2-Methoxy-6-(6-methoxy-4-((2-((2-methoxyethoxy)methyl)thiazol-4-yl)methoxy)benzofuran-2-yl)imidazo[2,1-b][1,3,4]thiadiazole], at PAR4 [1], the IC50 is 2030 nM. Moreover, on PAR4 [2], the EC50 was found to be 0.68 nM.

In the case of `COc1cc(OCc2cscn2)c2cc(-c3cn4nc(OC)sc4n3)oc2c1` [Example 34], 2320 nM corresponded to half-maximal inhibition at PAR4 [1] (IC50). The EC50 on PAR4 [2] turned out to be 1.2 nM.

For `COCCN(C)C(=O)c1ccc(-c2nc(COc3cc(OC)cc4oc(-c5cn6nc(OC)sc6n5)cc34)cs2)cc1` [Example 39], the IC50 on PAR4 [1] was 2.1 nM. On PAR4 [2], the EC50 stood at 0.46 nM. Take `CCc1sc(-c2ccc(C(=O)N(C)C)cc2)nc1COc1cc(OC)cc2oc(-c3cn4nc(OC)sc4n3)cc12` [Example 44, 4-(5-Ethyl-4-(((6-methoxy-2-(2-methoxyimidazo[2,1-b][1,3,4]thiadiazol-6-yl)benzofuran-4-yl)oxy)methyl)thiazol-2-yl)-N,N-dimethylbenzamide]: on PAR4 [1], the IC50 was 2 nM. On PAR4 [2], the EC50 is 0.9 nM. Taken in the same sequence, the figures for `COc1cc(OCc2nc(-c3ccc(C(=O)N(C)CC#N)cc3)sc2C)c2cc(-c3cn4nc(OC)sc4n3)oc2c1` [Example 48, N-(Cyanomethyl)-4-(4-(((6-methoxy-2-(2-methoxyimidazo[2,1-b][1,3,4]thiadiazol-6-yl)benzofuran-4-yl)oxy)methyl)-5-methylthiazol-2-yl)-N-methylbenzamide] were 1.2 nM and 0.51 nM. Taken in the same sequence, the figures for `COc1cc(OCc2csc(-c3ccnc(F)c3)n2)c2cc(-c3cn4nc(OC)sc4n3)oc2c1` [Example 67] were 2.2 nM and 0.34 nM. Taken in the same sequence, the figures for `COc1cc(OCc2csc(-c3ccc(F)nc3)n2)c2cc(-c3cn4nc(OC)sc4n3)oc2c1` [Example 73] were 1.9 nM and 0.35 nM.

On to `COc1cc(OCc2csc(-c3ccc(C)nc3)n2)c2cc(-c3cn4nc(OC)sc4n3)oc2c1` [Example 74], for which 0.96 nM corresponded to half-maximal inhibition at PAR4 [1] (IC50). Further, the EC50 at PAR4 [2] was 0.56 nM. Turning to `COc1cc(OCc2nc(-c3cccc(CO)c3)sc2C)c2cc(-c3cn4nc(OC)sc4n3)oc2c1` [Example 77], on PAR4 [1], the IC50 was 1.9 nM. Moreover, the EC50 at PAR4 [2] worked out at 1 nM. For the molecule `COc1cc(OCc2csc(-c3ccc(Cl)nc3)n2)c2cc(-c3cn4nc(OC)sc4n3)oc2c1` [Example 80], 0.94 nM corresponded to half-maximal inhibition on PAR4 [1] (IC50). Besides, the EC50 at PAR4 [2] is 0.74 nM. Taken in the same sequence, the figures for `COc1cc(OCc2nc(N)sc2C)c2cc(-c3cn4nc(OC)sc4n3)oc2c1` [Example 87, 4-(((6-Methoxy-2-(2-methoxyimidazo[2,1-b][1,3,4]thiadiazol-6-yl)benzofuran-4-yl)oxy)methyl)-5-methylthiazol-2-amine] were more than 3000 nM and 24 nM.

`COc1cc(OCc2nc(N3CC4CCC(C3)O4)sc2C)c2cc(-c3cn4nc(OC)sc4n3)oc2c1` [Example 93, 3-(4-(((6-Methoxy-2-(2-methoxyimidazo[2,1-b]thiadiazol-6-yl)benzofuran-4-yl)oxy)methyl)-5-methylthiazol-2-yl)-8-oxa-3-azabicyclo-[3.2.1]-octane] returned an IC50 on PAR4 [1] of 27 nM. Besides, at PAR4 [2], the EC50 worked out at 0.45 nM.

`COc1cc(OCc2csc(N3CCC4(CC3)OCCO4)n2)c2cc(-c3cn4nc(OC)sc4n3)oc2c1` [Example 103, 8-(4-(((6-Methoxy-2-(2-methoxyimidazo[2,1-b][1,3,4]thiadiazol-6-yl)benzofuran-4-yl)oxy)methyl)thiazol-2-yl)-1,4-dioxa-8-azaspiro[4.5]decane] had an IC50 against PAR4 [1] of 24 nM. Further, on PAR4 [2], the 50% effective concentration (EC50) is 0.31 nM. In turn, `COc1cc(OCc2csc(C3(O)CCOCC3)n2)c2cc(-c3cn4nc(OC)sc4n3)oc2c1` [Example 118, 4-(4-(((6-Methoxy-2-(2-methoxyimidazo[2,1-b][1,3,4]thiadiazol-6-yl)benzofuran-4-yl)oxy)methyl)thiazol-2-yl)tetrahydro-2H-pyran-4-ol] registered an IC50 on PAR4 [1] of 25 nM. Besides, the EC50 at PAR4 [2] worked out at 0.33 nM. Taken in the same sequence, the figures for `COc1cc(OCc2csc(C3(O)CC(C)OC(C)C3)n2)c2cc(-c3cn4nc(OC)sc4n3)oc2c1` (stereo not shown) [Example 121, 4-(4-(((6-Methoxy-2-(2-methoxyimidazo[2,1-b][1,3,4]thiadiazol-6-yl)benzofuran-4-yl)oxy)methyl)thiazol-2-yl)-2,6-dimethyltetrahydro-2H-pyran-4-ol] were 27 nM and 0.27 nM. The molecule `COc1cc(OCc2nc(C3(F)CCOCC3)sc2C)c2cc(-c3cn4nc(OC)sc4n3)oc2c1` [Example 125, 6-(4-((2-(4-Fluorotetrahydro-2H-pyran-4-yl)-5-methylthiazol-4-yl)methoxy)-6-methoxybenzofuran-2-yl)-2-methoxyimidazo[2,1-b][1,3,4]-thiadiazole] came in with an IC50 against PAR4 [1] of 5.7 nM. On PAR4 [1], `COc1cc(OCc2csc(C3(O)CCC4(CC3)OCCO4)n2)c2cc(-c3cn4nc(OC)sc4n3)oc2c1` [Example 126, 8-(4-(((6-Methoxy-2-(2-methoxyimidazo[2,1-b][1,3,4]thiadiazol-6-yl)benzofuran-4-yl)oxy)methyl)-thiazol-2-yl)-1,4-dioxaspiro[4.5]decan-8-ol] yielded an IC50 of 1.9 nM. Also, the EC50 at PAR4 [2] was determined as 0.33 nM. Taken in the same sequence, the figures for `COc1cc(OCc2nc(C3(O)CCOCC3)sc2C(F)(F)F)c2cc(-c3cn4nc(OC)sc4n3)oc2c1` [Example 131, 4-(4-(((6-Methoxy-2-(2-methoxyimidazo[2,1-b][1,3,4]thiadiazol-6-yl)benzofuran-4-yl)oxy)methyl)-5-(trifluoromethyl)thiazol-2-yl)tetrahydro-2H-pyran-4-ol] were more than 3000 nM and 0.66 nM. Taken in the same sequence, the figures for `COc1cc(OCc2csc(C(O)(c3ccccc3)C(F)(F)F)n2)c2cc(-c3cn4nc(OC)sc4n3)oc2c1` (stereo not shown) [Example 137] were 23 nM and 1.2 nM. As to `CCC(F)(c1nc(COc2cc(OC)cc3oc(-c4cn5nc(OC)sc5n4)cc23)cs1)C(F)(F)F` (stereo not shown) [Example 139], the midpoint of inhibition at PAR4 [1], the IC50, lay at 26 nM. On PAR4 [2], the EC50 is 0.41 nM. Taken in the same sequence, the figures for `CCC(F)(CC)c1nc(COc2cc(OC)cc3oc(-c4cn5nc(OC)sc5n4)cc23)cs1` [Example 141] were 24 nM and 0.47 nM.

On PAR4 [1], `COc1cc(OCc2csc(C(O)(c3ccc(Cl)cc3)C(F)(F)F)n2)c2cc(-c3cn4nc(OC)sc4n3)oc2c1` (stereo not shown) [Example 145] had an IC50 of 29 nM. Further, the EC50 on PAR4 [2] was found to be 0.45 nM. Taken in the same sequence, the figures for `COc1cc(OCc2csc(C3(O)CCC(C(=O)N4CCCC4)CC3)n2)c2cc(-c3cn4nc(OC)sc4n3)oc2c1` (stereo not shown) [Example 151, (4-Hydroxy-4-(4-(((6-methoxy-2-(2-methoxyimidazo[2,1-b][1,3,4]thiadiazol-6-yl)benzofuran-4-yl)oxy)methyl)thiazol-2-yl)cyclohexyl)(pyrrolidin-1-yl)methanone] were 26 nM and 0.84 nM. The molecule `COc1cc(OCc2csc(-c3ccccc3)n2)c2nc(-c3cn4nc(SC)sc4n3)oc2c1` [Example 201, 6-Methoxy-2-(2-(methylthio)imidazo[2,1-b][1,3,4]thiadiazol-6-yl)-4-((2-phenylthiazol-4-yl)methoxy)benzo[d]oxazole] showed an IC50 on PAR4 [1] of 156 nM. This lies in the sub-micromolar range.

The values above are taken from US9688695B2, “Imidazothiadiazole and imidazopyrazine derivatives as protease activated receptor 4 (PAR4) inhibitors for treating platelet aggregation” (BRISTOL-MYERS SQUIBB COMPANY, priority 2012, dated 2017).
